Where two headings read alike, the source gives them in different places.
Assays:
[1] = biological target: MEF-IGF1R cells (stable clone transfected with hIGF-1R) (Homo sapiens, UniProt P08069); experiment: Proliferation/viability of MEF-IGF1R (Test C), [14C]thymidine incorporation; format: cell-based; settings: rhIGF1 100 ng/mL, 72 hours, read-out: Test C IC50
Procedure: C) Measurement of the Proliferation/Viability of MEF-IGF1R
Cell culture: the MEF-IGF1R cells (stable clone of cells transfected with the receptor hIGF-1R) are cultured at 37° C. under 5% CO2 in EMEM medium containing 10% FCS.
Test procedure: the cells are seeded at 5000 cells per well in 96-well Cytostar plates (Amersham) with 0.2 mL of EMEM culture medium at 37° C. for 18 hours. The cells are then washed twice with EMEM medium and left to culture without serum for 24 hours. The compounds are then added at various concentrations in the presence of rhIGF1 (100 ng/mL) and 0.1 μCi of Thymidine [^14C] (specific activity ˜50 mCi/mmol) to give 0.2 mL of volume per well. After incubation for 72 hours in the presence of the compound, at 37° C. under 5% CO2, the incorporation of Thymidine [^14C] is measured by counting the radioactivity on a Microbeta trilux counter (Perkin-Elmer). The IC50 is determined from 10 increasing concentrations of the compound.
(§1) (i) The tests are performed in duplicate and the mean of the two tests is calculated.
(§2) (ii) The value of the signal of the maximum response is calculated from the positive control: cells stimulated with IGF1 without compound.
(§3) (iii) Value of the signal of the minimum response is calculated from the negative control: cells not stimulated with IGF1 without compound.
(§4) (iv) By using these values as maximum (100%) and minimum (0%), respectively, the data were normalized so as to give a percentage of the maximum response.
(§5) (v) A curve of dose response is plotted and the IC50 (the concentration of which the compound induces a 50% decrease in the signal) of the compound is calculated by non-linear regression analysis.

IGF1R in MCF-7 cells = biological target: T1, IGF1R in MCF-7 cells (Homo sapiens, UniProt P08069); experiment: Autophosphorylation of IGF-1R in MCF7 cells after stimulation with IGF-1 (Test B), ELISA; format: cell-based; settings: compound added one hour before IGF1 stimulation (10 minutes)
T1 construct: endogenous in cells; host or cells: MCF-7 cells
Procedure: B) Measurement of the Autophosphorylation of IGF-1r in MCF7 Cells after Stimulation with IGF-1
Cell Culturing and Execution of the Test:
The autophosphorylation of IGF1R in the IGF1-induced cells is evaluated by means of an ELISA technique (Enzyme Linked ImmunoSorbent Assay). The MCF-7 are seeded at 60 000 cells per well in 6-well plates and incubated at 37° C., 5% CO2 in medium containing 10% serum. After one night in 10% serum, the cells are deprived of serum for 24 hours. The compounds are added to the medium one hour before stimulation with IGF1. After 10 minutes of stimulation with IGF1, the cells are lysed with a buffer (Hepes 50 mM pH 7.6, Triton X100 1%, orthovanadate 2 mM, protease inhibitor cocktail). The cell lysates are incubated on a 96-well plate precoated with an anti-IGF1R antibody, followed by incubation with an anti-phosphotyrosine antibody coupled to the enzyme peroxidase. The level of peroxidase activity (measured by OD with a luminescent substrate) reflects the phosphorylation status of the receptor.
as §1, §2, §3, §4, §5

[2] = biological target: T2, IGF-1R (human cytoplasmic domain fused with GST) (Homo sapiens, UniProt P08069); experiment: Kinase IGF-1R test (Test A): inhibition of autophosphorylation of the enzyme, HTRF; format: biochemical; settings: 120 μM ATP
T2 construct: The human cytoplasmic domain of IGF-1R was cloned by fusion with glutathione S-transferase (GST); made in house; host or cells: SF21 insect cells (baculovirus, pFastBac-GST)
Procedure: A) Experimental Protocol for the Kinase IGF-1R Test:
The inhibitory activity of the compounds on IGF1R is determined by measuring the inhibition of autophosphorylation of the enzyme using a time-resolved fluorescence test (HTRF). The human cytoplasmic domain of IGF-1R was cloned by fusion with glutathione S-transferase (GST) in the baculovirus expression vector pFastBac-GST. The protein is expressed in the SF21 cells and purified to about 80% homogeneity. For the enzymatic test, the test compound at 10 mM dissolved in DMSO is diluted in 1/3 steps in a 50 mM Hepes, pH 7.5, 5 mM MnCl2, 50 mM NaCl, 3% Glycerol, 0.025% Tween 20 buffer. To measure the inhibition, the successive dilutions of the compound are preincubated for 30 minutes and 90 minutes in the presence of 5 nM of enzyme, the final DMSO concentration not exceeding 1%. The enzymatic reaction is initiated to have a final ATP concentration of 120 μM, and is stopped after 5 minutes by addition of 100 mM Hepes, pH 7.0 buffer containing 0.4 M of potassium fluoride, 133 mM EDTA, 0.1% BSA, the XL665-labelled antibody anti-GST and the anti-phosphotyrosine antibody conjugated to europium cryptate Eu—K (Cis-Bio Int.). The characteristics of the two fluorophores, XL-665 and Eu—K, are available in G. Mathis et al., Anticancer Research, 1997, 17, pages 3011-3014. The energy transfer between the excited europium cryptate to the acceptor XL665 is proportional to the degree of autophosphorylation of IGF-1R. The specific long-lasting signal of XL-665 is measured in a GENios Pro TECAN plate counter. The inhibition of autophosphorylation of IGF-1R at time 30 minutes and 90 minutes with the test compounds of the invention is calculated relative to a 1% in DMSO control, whose activity is measured in the absence of compound. The curve representing the percentage of inhibition as a function of the log of the concentration is established to determine the concentration corresponding to 50% inhibition (IC50).

[3] = preincubation with enzyme 30 minutes, read-out: Test A 30′ IC50
[4] = preincubation with enzyme 90 minutes, read-out: Test A 90′ IC50

T2 sequence (P08069 960-1367 limits assumed): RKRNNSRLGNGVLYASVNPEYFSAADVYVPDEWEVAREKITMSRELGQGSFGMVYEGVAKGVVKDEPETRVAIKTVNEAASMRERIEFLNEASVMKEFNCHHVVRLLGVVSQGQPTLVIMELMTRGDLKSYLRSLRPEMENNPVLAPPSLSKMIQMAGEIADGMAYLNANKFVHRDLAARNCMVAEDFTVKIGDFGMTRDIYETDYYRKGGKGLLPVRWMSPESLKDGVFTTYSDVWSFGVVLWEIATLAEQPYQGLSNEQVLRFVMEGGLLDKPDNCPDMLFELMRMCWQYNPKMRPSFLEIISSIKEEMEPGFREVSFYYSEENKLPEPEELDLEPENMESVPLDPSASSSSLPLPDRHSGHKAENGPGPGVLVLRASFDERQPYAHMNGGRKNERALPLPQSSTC
MEF-IGF1R cells (stable clone transfected with hIGF-1R), sequence (P08069 whole entry, change not shown): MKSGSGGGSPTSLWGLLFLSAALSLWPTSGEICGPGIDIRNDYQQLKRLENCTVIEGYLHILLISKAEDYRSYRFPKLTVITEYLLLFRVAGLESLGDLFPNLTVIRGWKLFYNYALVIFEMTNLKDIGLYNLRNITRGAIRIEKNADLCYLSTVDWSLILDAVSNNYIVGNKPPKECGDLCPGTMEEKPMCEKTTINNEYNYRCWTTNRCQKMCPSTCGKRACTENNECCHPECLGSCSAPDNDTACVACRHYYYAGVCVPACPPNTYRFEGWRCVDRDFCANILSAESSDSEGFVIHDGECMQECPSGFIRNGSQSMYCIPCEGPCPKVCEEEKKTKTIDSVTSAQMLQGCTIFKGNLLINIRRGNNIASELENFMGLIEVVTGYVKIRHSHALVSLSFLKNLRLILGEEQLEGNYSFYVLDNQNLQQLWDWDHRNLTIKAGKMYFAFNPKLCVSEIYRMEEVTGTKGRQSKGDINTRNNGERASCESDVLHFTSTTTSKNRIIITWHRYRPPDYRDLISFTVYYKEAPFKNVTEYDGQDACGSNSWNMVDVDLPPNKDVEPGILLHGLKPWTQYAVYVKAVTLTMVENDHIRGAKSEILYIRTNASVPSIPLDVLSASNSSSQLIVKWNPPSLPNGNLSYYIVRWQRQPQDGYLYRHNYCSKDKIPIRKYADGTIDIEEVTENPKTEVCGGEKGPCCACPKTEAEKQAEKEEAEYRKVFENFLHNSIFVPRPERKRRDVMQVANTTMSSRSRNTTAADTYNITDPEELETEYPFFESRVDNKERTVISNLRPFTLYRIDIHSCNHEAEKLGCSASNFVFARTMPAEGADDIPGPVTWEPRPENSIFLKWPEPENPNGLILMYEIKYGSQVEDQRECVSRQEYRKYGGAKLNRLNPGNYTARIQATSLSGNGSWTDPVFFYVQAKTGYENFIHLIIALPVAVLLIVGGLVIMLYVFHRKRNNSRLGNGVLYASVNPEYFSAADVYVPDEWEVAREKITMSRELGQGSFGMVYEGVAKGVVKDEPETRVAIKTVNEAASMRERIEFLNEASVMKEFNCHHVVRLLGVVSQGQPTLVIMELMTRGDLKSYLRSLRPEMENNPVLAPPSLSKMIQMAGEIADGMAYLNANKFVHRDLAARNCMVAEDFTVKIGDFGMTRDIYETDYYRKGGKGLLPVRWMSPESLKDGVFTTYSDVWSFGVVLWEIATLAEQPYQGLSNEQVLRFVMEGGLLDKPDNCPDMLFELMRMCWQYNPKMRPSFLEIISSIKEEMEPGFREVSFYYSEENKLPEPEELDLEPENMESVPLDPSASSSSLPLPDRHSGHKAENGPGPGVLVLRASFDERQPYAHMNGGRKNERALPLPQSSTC
T1 sequence (P08069 31-1367): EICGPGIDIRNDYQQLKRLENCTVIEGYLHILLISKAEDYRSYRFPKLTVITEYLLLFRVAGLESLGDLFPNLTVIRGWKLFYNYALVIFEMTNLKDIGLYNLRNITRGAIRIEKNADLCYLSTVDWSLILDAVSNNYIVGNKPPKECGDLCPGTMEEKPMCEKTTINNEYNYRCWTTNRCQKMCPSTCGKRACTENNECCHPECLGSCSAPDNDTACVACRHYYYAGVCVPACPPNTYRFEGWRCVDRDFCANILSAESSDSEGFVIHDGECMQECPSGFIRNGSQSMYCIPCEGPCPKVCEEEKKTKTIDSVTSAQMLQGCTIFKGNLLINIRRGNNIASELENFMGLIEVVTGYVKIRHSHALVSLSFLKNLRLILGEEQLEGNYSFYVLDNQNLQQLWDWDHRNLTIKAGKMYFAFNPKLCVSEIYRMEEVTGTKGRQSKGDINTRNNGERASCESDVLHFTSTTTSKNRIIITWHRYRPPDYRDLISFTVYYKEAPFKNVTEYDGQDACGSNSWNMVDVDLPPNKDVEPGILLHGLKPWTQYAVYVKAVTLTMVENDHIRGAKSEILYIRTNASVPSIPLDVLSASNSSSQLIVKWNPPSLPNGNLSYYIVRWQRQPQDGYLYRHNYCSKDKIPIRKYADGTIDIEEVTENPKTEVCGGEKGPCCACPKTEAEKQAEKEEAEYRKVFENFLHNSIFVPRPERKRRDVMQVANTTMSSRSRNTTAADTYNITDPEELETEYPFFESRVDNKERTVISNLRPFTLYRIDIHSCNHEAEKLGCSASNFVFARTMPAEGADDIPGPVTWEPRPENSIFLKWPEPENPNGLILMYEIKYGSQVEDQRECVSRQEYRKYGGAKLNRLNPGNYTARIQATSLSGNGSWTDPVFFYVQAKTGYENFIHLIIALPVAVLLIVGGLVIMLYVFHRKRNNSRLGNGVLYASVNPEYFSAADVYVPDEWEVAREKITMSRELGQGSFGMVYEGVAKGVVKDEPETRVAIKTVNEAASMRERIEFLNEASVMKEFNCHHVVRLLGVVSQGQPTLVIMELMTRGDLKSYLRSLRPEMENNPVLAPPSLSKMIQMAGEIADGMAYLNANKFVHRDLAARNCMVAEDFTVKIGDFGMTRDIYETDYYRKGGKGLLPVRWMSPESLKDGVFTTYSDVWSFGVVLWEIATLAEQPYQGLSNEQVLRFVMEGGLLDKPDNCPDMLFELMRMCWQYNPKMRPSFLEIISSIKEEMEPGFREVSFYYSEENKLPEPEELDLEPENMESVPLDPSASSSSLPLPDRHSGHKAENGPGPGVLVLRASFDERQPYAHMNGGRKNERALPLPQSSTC

Row | Structure (SMILES) | IC50 (IGF1R in MCF-7 cells) [nM] | IC50 [2, 3] [nM] | IC50 [2, 4] [nM] | GI50 [1] [nM]
1 | CC(C)(C)c1ccc(N2C(=O)N(Cc3ccnc(Nc4ccc(CN5CCCC5)cc4)c3)C(C)(C)C2=O)cc1 [Example 31F, 3-(4-tert-butylphenyl)-5,5-dimethyl-1-[(2-{[4-(pyrrolidin-1-ylmethyl)phenyl]amino}pyridin-4-yl)methyl]imidazolidine-2,4-dione] | 10 to 100 | 10 to 100 | < 10 | < 10
2 | CC(C)(C)c1ccc(N2C(=O)N(Cc3ccnc(Nc4cccc(CN5CCCC5)c4)c3)C(C)(C)C2=O)cc1 [Example 31G, 3-(4-tert-butylphenyl)-5,5-dimethyl-1-[(2-{[3-(pyrrolidin-1-ylmethyl)phenyl]amino}pyridin-4-yl)methyl]imidazolidine-2,4-dione] | 10 to 100 | 10 to 100 | < 10 | < 10
3 | CC(C)(C)c1ccc(N2C(=O)N(Cc3ccnc(Nc4cccc(CCN5CCCC5)c4)c3)C(C)(C)C2=O)cc1 [Example 31H, 3-(4-tert-butylphenyl)-5,5-dimethyl-1-[(2-{[3-(2-pyrrolidin-1-ylethyl)phenyl]amino}pyridin-4-yl)methyl]imidazolidine-2,4-dione] | < 10 | 10 to 100 | < 10 | < 10
4 | CC(C)(C)c1ccc(N2C(=O)N(Cc3ccnc(Nc4ccc(Cl)nc4)c3)C(C)(C)C2=O)cc1 [Example 31L, 3-(4-tert-butylphenyl)-1-({2-[(6-chloropyridin-3-yl)amino]pyridin-4-yl}methyl)-5,5-dimethylimidazolidine-2,4-dione] | 10 to 100 | > 100 | 10 to 100 | 10 to 100
5 | CC(C)(C)c1ccc(N2C(=O)N(Cc3ccnc(NC(=O)Nc4cccnc4)c3)C(C)(C)C2=O)cc1 [Example 31O, 1-(4-{[3-(4-tert-butylphenyl)-5,5-dimethyl-2,4-dioxoimidazolidin-1-yl]methyl}pyridin-2-yl)-3-pyridin-3-ylurea] | 10 to 100 | > 100 | > 100 | 10 to 100
6 | CC(C)(C)c1ccc(N2C(=O)N(Cc3ccnc(NC(N)=O)c3)C(C)(C)C2=O)cc1 [Example 31P, 1-(4-{[3-(4-tert-butylphenyl)-5,5-dimethyl-2,4-dioxoimidazolidin-1-yl]methyl}pyridin-2-yl)urea] | 10 to 100 | 10 to 100 | < 10 | < 10
7 | COC(=O)Nc1cc(CN2C(=O)N(c3ccc(C(C)(C)C)cc3)C(=O)C2(C)C)ccn1 [Example 31Q, methyl (4-{[3-(4-tert-butylphenyl)-5,5-dimethyl-2,4-dioxoimidazolidin-1-yl]methyl}pyridin-2-yl)carbamate] | < 10 | 10 to 100 | < 10 | 10 to 100
8 | CC(C)(C)c1ccc(N2C(=O)N(Cc3ccnc(Nc4ccc(CCN5CCCC5)cc4)c3)C(C)(C)C2=O)cc1 [Example 31U, 3-(4-tert-butylphenyl)-5,5-dimethyl-1-[(2-{[4-(2-pyrrolidin-1-ylethyl)phenyl]amino}pyridin-4-yl)methyl]imidazolidine-2,4-dione] | < 10 | 10 to 100 | < 10 | < 10

More lines, main results first:

Row | IC50 (IGF1R in MCF-7 cells) [nM] | IC50 [2, 3] [nM] | IC50 [2, 4] [nM] | Structure (SMILES) | GI50 [1] [nM]
9 | 10 to 100 | > 100 | 10 to 100 | CC(C)(C)c1ccc(N2C(=O)N(Cc3ccnc(Nc4cccc(F)c4)c3)C(C)(C)C2=O)cc1 [Example 31I, 3-(4-tert-butylphenyl)-1-({2-[(3-fluorophenyl)-amino]pyridin-4-yl}methyl)-5,5-dimethylimidazolidine-2,4-dione] | < 10
10 | 10 to 100 | 10 to 100 | < 10 | CC(C)(C)c1ccc(N2C(=O)N(Cc3ccnc(NC4CC4)c3)C(C)(C)C2=O)cc1 [Example 31J, 3-(4-tert-butylphenyl)-1-{[2-(cyclopropylamino)pyridin-4-yl]methyl}-5,5-dimethylimidazolidine-2,4-dione] | 10 to 100
11 | < 10 | 10 to 100 | 10 to 100 | CC(C)(C)c1ccc(N2C(=O)N(Cc3ccnc(Nc4cccnc4Cl)c3)C(C)(C)C2=O)cc1 [Example 31K, 3-(4-tert-butylphenyl)-1-({2-[(2-chloropyridin-3-yl)amino]pyridin-4-yl}methyl)-5,5-dimethylimidazolidine-2,4-dione] | 10 to 100
12 | 10 to 100 | 10 to 100 | 10 to 100 | CC(C)(C)c1ccc(N2C(=O)N(Cc3ccnc(Nc4ccc(O)nc4)c3)C(C)(C)C2=O)cc1 [Example 31M, 3-(4-tert-butylphenyl)-1-({2-[(6-hydroxypyridin-3-yl)amino]pyridin-4-yl}methyl)-5,5-dimethylimidazolidine-2,4-dione] | 10 to 100
13 | 10 to 100 | > 100 | 10 to 100 | CC(C)(CO)c1ccc(N2C(=O)N(Cc3ccnc(Nc4cccnc4)c3)C(C)(C)C2=O)cc1 [Example 31N, 3-[4-(2-hydroxy-1,1-dimethylethyl)phenyl]-5,5-dimethyl-1-{[2-(pyridin-3-ylamino)pyridin-4-yl]methyl}-imidazolidine-2,4-dione] | > 100

— US7935819B2, “Cyclic urea derivatives, preparation thereof and pharmaceutical use thereof as kinase inhibitors” (Aventis Pharma S.A., priority 2006, dated 2011)
